# Read-outs that look alike come from different tables or passages of the source.
# Tests used:
# E6 WT/E6AP [1] = biological target: T1, E6 WT/E6AP (Human papillomavirus type 16, UniProt P03126); experiment: biochemical; format: binding; details: at 24 h; for IC50: 2 μM E6 WT pre-incubated with compound; for Emax: E6 WT, read-out: BLI maximal Inhibition (max %) E6 WT/E6AP
# E6C51S/E6AP [2] = biological target: T2, E6C51S/E6AP (Human papillomavirus type 16, UniProt P03126, C58S); experiment: BLI binding assay, E6 C51S binding to captured E6AP; parameters: species or system HPV-16; details: for BLI maximal Inhibition (max %) E6C51S/E6AP: at 24 h, E6 C51S
# T2 sequence (P03126 whole entry C58S, looked up): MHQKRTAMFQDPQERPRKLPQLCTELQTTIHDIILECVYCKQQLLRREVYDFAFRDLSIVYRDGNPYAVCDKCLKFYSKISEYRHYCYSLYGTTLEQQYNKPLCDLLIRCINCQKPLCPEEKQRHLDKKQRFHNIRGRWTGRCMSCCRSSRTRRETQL
# E6 WT/E6AP [3] = biological target: T1, E6 WT/E6AP; experiment: biochemical; format: binding; details: WT 16E6; for inhibition at 10 µM: 10 μM compound; for inhibition at 100 µM: 100 μM compound
# E6C51S/E6AP [4] = biological target: T2, E6C51S/E6AP; experiment: E6/E6AP binding assay (amylose-bound MBP-16E6, E6AP-BAP activity), C51S 16E6; parameters: species or system HPV-16; details: for % Inhibition @ 10 μM E6C51S/E6AP: 10 μM compound; for % Inhibition @ 100 μM E6C51S/E6AP: 100 μM compound
# E6 WT/E6AP [5] = biological target: T1, E6 WT/E6AP; experiment: biochemical; format: binding; details: for Emax: 24 h, read-out: FP maximal inhibition (max %) E6 WT/E6AP; for IC50: FP IC50 at 24 h (μM) E6 WT/E6AP
# T1 sequence (P03126 8-158): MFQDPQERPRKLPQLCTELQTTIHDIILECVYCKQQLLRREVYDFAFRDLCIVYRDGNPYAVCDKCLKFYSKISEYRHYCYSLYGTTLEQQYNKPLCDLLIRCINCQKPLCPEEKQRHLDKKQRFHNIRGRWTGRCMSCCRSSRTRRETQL
Structure (SMILES),IC50 (E6 WT/E6AP [1]) [µM],Emax (E6 WT/E6AP [1]) [%],"loss of ability to inhibit mutant form E6-Cys51Ser (BLI), in words (E6C51S/E6AP [2]; FIG. 1B, E6-Cys51Ser)",inhibition at 10 µM (E6 WT/E6AP [3]) [%],inhibition at 100 µM (E6 WT/E6AP [3]) [%],% Inhibition @ 10 μM E6C51S/E6AP (E6C51S/E6AP [4]) [%],% Inhibition @ 100 μM E6C51S/E6AP (E6C51S/E6AP [4]) [%],BLI maximal Inhibition (max %) E6C51S/E6AP (E6C51S/E6AP [2]),Emax (E6 WT/E6AP [5]) [%],IC50 (E6 WT/E6AP [5]) [µM],FP maximal inhibition (max %) E6 WT/E6AP (E6 WT/E6AP [5]; at 24 h)
"C=CC(=O)N1CCCN(C(=O)CN2CCc3sccc3C2c2ccccc2C)CC1 (stereo not drawn) [EIN-122, 1-(4-(2-(4-(o-tolyl)-6,7-dihydrothieno[3,2-c]pyridin-5(4H)-yl)acetyl)-1,4-diazepan-1-yl)prop-2-en-1-one]",62.7 ± 12.1,100,nearly completely lost,0,97 ± 1,–,–,–,–,–,–
"O=C(CCl)N1CCN(c2nc(CCc3ccccc3)nc3sc4c(c23)CCCC4)CC1 [EIN-125, 2-chloro-1-(4-(2-phenethyl-5,6,7,8-tetrahydrobenzo[4,5]thieno[2,3-d]pyrimidin-4-yl)piperazin-1-yl)ethan-1-one]",–,100,–,54 ± 13,102 ± 10,32 ± 11,62 ± 1,(max 100%),–,–,–
"C=CC(=O)N1CCN(c2nc(CCc3ccccc3)nc3sc4c(c23)CCCC4)CC1 [EIN-132, 1-(4-(2-phenethyl-5,6,7,8-tetrahydrobenzo[4,5]thieno[2,3-d]pyrimidin-4-yl)piperazin-1-yl)prop-2-en-1-one]",–,100,–,3.5 ± 2,61 ± 2,0,19 ± 5,(max 100%),–,–,–
"C=CC(=O)N1CCN(c2nc(-c3ccccc3)nc3sc4c(c23)CCCC4)CC1 [EIN-133, 1-(4-(2-phenyl-5,6,7,8-tetrahydrobenzo[4,5]thieno[2,3-d]pyrimidin-4-yl)piperazin-1-yl)prop-2-en-1-one]",14.9 ± 6.6,60,–,26 ± 7,41 ± 5,0,0,–,9,10.4 ± 0.7,–
"C=CC(=O)N1CCN(c2nc(NCc3ccccc3)nc3sc4c(c23)CCCC4)CC1 [EIN-134, 1-(4-(2-(benzylamino)-5,6,7,8-tetrahydrobenzo[4,5]thieno[2,3-d]pyrimidin-4-yl)piperazin-1-yl)prop-2-en-1-one]",32.6 ± 19.2,100,–,18 ± 6,35 ± 4,0,0,–,11,12.1 ± 0.7,–
"C=CC(=O)N1CCN(c2nc(Cc3ccccc3)nc3sc4c(c23)CCCC4)CC1 [EIN-135, 1-(4-(2-benzyl-5,6,7,8-tetrahydrobenzo[4,5]thieno[2,3-d]pyrimidin-4-yl)piperazin-1-yl)prop-2-en-1-one]",10.9 ± 3.4,85,–,0,52 ± 5,12 ± 3,25 ± 4,–,27,15.4 ± 0.4,–
"C=CC(=O)N1CCN(c2nc(CCc3ccc(F)cc3)nc3sc4c(c23)CCCC4)CC1 [EIN-136, 1-(4-(2-(4-fluorophenethyl)-5,6,7,8-tetrahydrobenzo[4,5]thieno[2,3-d]pyrimidin-4-yl)piperazin-1-yl)prop-2-en-1-one]",2.7 ± 0.3,100,–,41 ± 7,69 ± 2,–,–,–,55,12 ± 0.9,–
"C=CC(=O)N1CCN(c2nc(CCc3cccc(F)c3)nc3sc4c(c23)CCCC4)CC1 [EIN-137, 1-(4-(2-(3-fluorophenethyl)-5,6,7,8-tetrahydrobenzo[4,5]thieno[2,3-d]pyrimidin-4-yl)piperazin-1-yl)prop-2-en-1-one]",4.9 ± 0.6,90,–,35 ± 4,56 ± 4,15 ± 3,16 ± 5,–,–,–,–
"C=CC(=O)N1CCN(c2nc(CCc3ccccc3F)nc3sc4c(c23)CCCC4)CC1 [EIN-138, 1-(4-(2-(2-fluorophenethyl)-5,6,7,8-tetrahydrobenzo[4,5]thieno[2,3-d]pyrimidin-4-yl)piperazin-1-yl)prop-2-en-1-one]",4.1 ± 0.5,90,–,20 ± 6,57 ± 3,16 ± 6,19 ± 7,–,–,–,–
"C=CC(=O)N1CCN(c2nc(CCc3cccc(OC)c3)nc3sc4c(c23)CCCC4)CC1 [EIN-143, 1-(4-(2-(3-methoxyphenethyl)-5,6,7,8-tetrahydrobenzo[4,5]thieno[2,3-d]pyrimidin-4-yl)piperazin-1-yl)prop-2-en-1-one]",2.5 ± 0.5,100,–,44 ± 9,78 ± 3,19 ± 7,23 ± 10,–,–,–,(max 93%)
"C=CC(=O)N1CCN(c2nc(CCc3ccc(OC)cc3)nc3sc4c(c23)CCCC4)CC1 [EIN-144, 1-(4-(2-(4-methoxyphenethyl)-5,6,7,8-tetrahydrobenzo[4,5]thieno[2,3-d]pyrimidin-4-yl)piperazin-1-yl)prop-2-en-1-one]",1.6 ± 0.5,62,–,12 ± 6,45 ± 4,9 ± 9,17 ± 5,–,63,14.8 ± 1.2,–
"C=CC(=O)N1CCN(c2nc(CCc3ccccc3OC)nc3sc4c(c23)CCCC4)CC1 [EIN-145, 1-(4-(2-(2-methoxyphenethyl)-5,6,7,8-tetrahydrobenzo[4,5]thieno[2,3-d]pyrimidin-4-yl)piperazin-1-yl)prop-2-en-1-one]",2 ± 0.9,65,–,32 ± 4,51 ± 2,20 ± 6,23 ± 7,–,59,15 ± 1.2,–
"C=CC(=O)N1CCN(c2nc(Cc3ccc(F)cc3)nc3sc4c(c23)CCCC4)CC1 [EIN-146, 1-(4-(2-(4-fluorobenzyl)-5,6,7,8-tetrahydrobenzo[4,5]thieno[2,3-d]pyrimidin-4-yl)piperazin-1-yl)prop-2-en-1-one]",–,100,–,16 ± 4,30 ± 3,11 ± 7,15 ± 8,(max 100%),20,–,–
"CC#CC(=O)N1CCN(c2nc(CCc3cccc(OC)c3)nc3sc4c(c23)CCCC4)CC1 [EIN-147, 1-(4-(2-(3-methoxyphenethyl)-5,6,7,8-tetrahydrobenzo[4,5]thieno[2,3-d]pyrimidin-4-yl)piperazin-1-yl)but-2-yn-1-one]",–,100,–,–,–,–,–,(max 100%),–,–,–
"COc1cccc(CCc2nc(N3CCN(C(=O)/C=C/CN(C)C)CC3)c3c4c(sc3n2)CCCC4)c1 [EIN-148, (E)-4-(dimethylamino)-1-(4-(2-(3-methoxyphenethyl)-5,6,7,8-tetrahydrobenzo[4,5]thieno[2,3-d]pyrimidin-4-yl)piperazin-1-yl)but-2-en-1-one]",3.3 ± 0.3,100,–,–,–,–,–,–,100,20.4 ± 3,–
"C=CC(=O)N1CCN(c2nc(CCc3cccc(OC)c3)nc3sc4c(c23)CCCCC4)CC1 [EIN-150, 1-(4-(2-(3-methoxyphenethyl)-6,7,8,9-tetrahydro-5H-cyclohepta[4,5]thieno[2,3-d]pyrimidin-4-yl)piperazin-1-yl)prop-2-en-1-one]",–,100,–,–,–,–,–,(max 100%),57,–,–
"C=CC(=O)N1CCN(c2nc(CCc3cccc(OC)c3)nc3ccccc23)CC1 [EIN-154, 1-(4-(2-(3-methoxyphenethyl)quinazolin-4-yl)piperazin-1-yl)prop-2-en-1-one]",–,100,–,–,–,–,–,(max 75%),93,–,–
"COc1cccc(CCc2nc(N3CCN(C(=O)/C=C/CN(C)C)CC3)c3ccccc3n2)c1 [EIN-155, (E)-4-(dimethylamino)-1-(4-(2-(3-methoxyphenethyl)quinazolin-4-yl)piperazin-1-yl)but-2-en-1-one]",–,100,–,–,–,–,–,(max 100%),100,–,–
"C=CC(=O)N1CCN(c2nc(Cc3ccccc3)nc3ccccc23)CC1 [EIN-156, 1-(4-(2-benzylquinazolin-4-yl)piperazin-1-yl)prop-2-en-1-one]",–,100,–,–,–,–,–,(max 100%),–,–,–
"C=CC(=O)N1CCN(c2nc(-c3ccccc3)nc3ccccc23)CC1 [EIN-157, 1-(4-(2-phenylquinazolin-4-yl)piperazin-1-yl)prop-2-en-1-one]",–,100,–,–,–,–,–,(max 100%),–,–,–
